{"source": "ChEMBL document CHEMBL4190187", "about": "“Discovery of pyrazolopyrimidine derivatives as novel inhibitors of ataxia telangiectasia and rad3 related protein (ATR)” (Bioorg Med Chem Lett, 2017)", "key": {"[1]": {"biological_target": "Mitogen-activated protein kinase 1 (Mus musculus) (UniProt P63085)", "sequence (P63085 whole entry)": "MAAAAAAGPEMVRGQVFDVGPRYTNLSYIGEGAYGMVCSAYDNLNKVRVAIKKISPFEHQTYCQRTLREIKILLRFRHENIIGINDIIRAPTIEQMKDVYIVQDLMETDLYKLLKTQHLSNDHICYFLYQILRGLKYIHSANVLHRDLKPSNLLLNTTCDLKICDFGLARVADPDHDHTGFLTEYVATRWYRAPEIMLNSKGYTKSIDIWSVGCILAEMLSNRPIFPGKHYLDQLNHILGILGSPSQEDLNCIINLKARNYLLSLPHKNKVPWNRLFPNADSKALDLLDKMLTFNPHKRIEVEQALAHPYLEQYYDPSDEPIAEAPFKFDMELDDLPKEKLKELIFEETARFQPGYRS", "assay": "Inhibition of recombinant full-length mouse MAPK2 at 1 uM using myelin basic protein as substrate after 40 mins in presence of [gamma-33P]ATP by scintillation counting method"}, "[2]": {"biological_target": "Macrophage-stimulating protein receptor (Homo sapiens) (UniProt Q04912)", "assay": "Inhibition of recombinant human Ron (983 to end residues) at 1 uM using GGMEDIYFEFMGGKKK as substrate after 40 mins in presence of [gamma-33P]ATP by scintillation counting method"}, "[3]": {"biological_target": "Serine/threonine-protein kinase DCLK2 (Homo sapiens) (UniProt Q8N568)", "assay": "Inhibition of recombinant human DCAMKL2 (376 to end residues) at 1 uM using KKLNRTLSFAEPG as substrate after 40 mins in presence of [gamma-33P]ATP by scintillation counting method"}, "[4]": {"biological_target": "Platelet-derived growth factor receptor alpha (Homo sapiens) (UniProt P16234)", "sequence (P16234 whole entry)": "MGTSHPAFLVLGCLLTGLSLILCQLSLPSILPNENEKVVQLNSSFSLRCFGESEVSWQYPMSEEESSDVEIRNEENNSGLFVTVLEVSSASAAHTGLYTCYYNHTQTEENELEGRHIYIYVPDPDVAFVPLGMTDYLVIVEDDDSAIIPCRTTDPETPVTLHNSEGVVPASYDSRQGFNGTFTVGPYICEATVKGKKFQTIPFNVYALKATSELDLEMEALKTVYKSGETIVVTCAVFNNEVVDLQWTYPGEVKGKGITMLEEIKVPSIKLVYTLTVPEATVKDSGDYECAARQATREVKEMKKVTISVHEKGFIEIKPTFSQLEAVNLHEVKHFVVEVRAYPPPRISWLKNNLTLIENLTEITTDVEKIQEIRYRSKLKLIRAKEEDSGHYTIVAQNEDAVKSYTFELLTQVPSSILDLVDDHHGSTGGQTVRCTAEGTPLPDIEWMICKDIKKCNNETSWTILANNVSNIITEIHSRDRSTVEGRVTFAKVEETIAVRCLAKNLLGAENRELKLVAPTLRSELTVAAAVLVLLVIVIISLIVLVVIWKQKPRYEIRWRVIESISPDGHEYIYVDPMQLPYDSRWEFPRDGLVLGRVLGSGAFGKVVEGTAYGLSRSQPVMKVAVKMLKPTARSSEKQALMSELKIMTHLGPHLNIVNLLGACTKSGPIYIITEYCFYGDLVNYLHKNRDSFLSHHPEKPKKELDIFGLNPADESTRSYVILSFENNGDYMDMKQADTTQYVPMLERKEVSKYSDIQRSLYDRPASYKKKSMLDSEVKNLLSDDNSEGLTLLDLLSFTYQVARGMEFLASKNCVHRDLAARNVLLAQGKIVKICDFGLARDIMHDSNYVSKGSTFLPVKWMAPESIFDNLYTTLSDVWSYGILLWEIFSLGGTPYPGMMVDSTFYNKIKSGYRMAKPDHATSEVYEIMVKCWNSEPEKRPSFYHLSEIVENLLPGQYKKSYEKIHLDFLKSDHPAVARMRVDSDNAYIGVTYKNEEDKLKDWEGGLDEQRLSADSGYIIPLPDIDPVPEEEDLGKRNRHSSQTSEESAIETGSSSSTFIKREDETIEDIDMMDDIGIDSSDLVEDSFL", "assay": "Inhibition of recombinant human PDGFRalpha (550 to end residues) at 1 uM using poly(Glu,Tyr) 4:1 as substrate after 40 mins in presence of [gamma-33P]ATP by scintillation counting method"}, "[5]": {"test_system": "Serine/threonine-protein kinase Chk2 (Homo sapiens), O96017 [R145W]", "sequence (O96017 whole entry R145W)": "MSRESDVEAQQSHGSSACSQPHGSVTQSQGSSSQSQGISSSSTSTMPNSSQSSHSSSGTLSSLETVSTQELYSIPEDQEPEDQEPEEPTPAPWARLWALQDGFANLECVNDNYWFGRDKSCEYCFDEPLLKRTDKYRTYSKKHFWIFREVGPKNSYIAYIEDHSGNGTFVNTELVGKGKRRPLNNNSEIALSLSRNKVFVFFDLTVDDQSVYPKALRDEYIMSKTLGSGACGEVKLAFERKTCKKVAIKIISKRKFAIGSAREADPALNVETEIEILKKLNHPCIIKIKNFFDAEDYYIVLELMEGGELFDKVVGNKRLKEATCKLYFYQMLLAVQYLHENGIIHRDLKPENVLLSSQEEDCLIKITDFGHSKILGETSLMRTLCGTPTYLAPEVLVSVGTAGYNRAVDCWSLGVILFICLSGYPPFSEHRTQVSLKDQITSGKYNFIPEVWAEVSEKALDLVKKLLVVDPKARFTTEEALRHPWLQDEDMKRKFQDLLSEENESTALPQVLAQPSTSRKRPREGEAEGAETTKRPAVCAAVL", "assay": "Inhibition of recombinant human CHK2 R145W mutant (5 to end residues) at 1 uM using KKKVSRSGLYRSPSMPENLNRPR as substrate after 40 mins in presence of [gamma-33P]ATP by scintillation counting method"}, "[6]": {"biological_target": "Fibroblast growth factor receptor 1 (Homo sapiens) (UniProt P11362)", "assay": "Inhibition of recombinant human FGFR1 (456 to 765 residues) at 1 uM using KKKSPGEYVNIEFG as substrate after 40 mins in presence of [gamma-33P]ATP by scintillation counting method"}, "[7]": {"biological_target": "Serine/threonine-protein kinase PAK 5 (Homo sapiens) (UniProt Q9P286)", "assay": "Inhibition of recombinant human PAK5 (425 to end residues) at 1 uM using RRRLSFAEPG as substrate after 40 mins in presence of [gamma-33P]ATP by scintillation counting method"}, "[8]": {"biological_target": "Interferon-induced, double-stranded RNA-activated protein kinase (Homo sapiens) (UniProt P19525)", "sequence (P19525 whole entry)": "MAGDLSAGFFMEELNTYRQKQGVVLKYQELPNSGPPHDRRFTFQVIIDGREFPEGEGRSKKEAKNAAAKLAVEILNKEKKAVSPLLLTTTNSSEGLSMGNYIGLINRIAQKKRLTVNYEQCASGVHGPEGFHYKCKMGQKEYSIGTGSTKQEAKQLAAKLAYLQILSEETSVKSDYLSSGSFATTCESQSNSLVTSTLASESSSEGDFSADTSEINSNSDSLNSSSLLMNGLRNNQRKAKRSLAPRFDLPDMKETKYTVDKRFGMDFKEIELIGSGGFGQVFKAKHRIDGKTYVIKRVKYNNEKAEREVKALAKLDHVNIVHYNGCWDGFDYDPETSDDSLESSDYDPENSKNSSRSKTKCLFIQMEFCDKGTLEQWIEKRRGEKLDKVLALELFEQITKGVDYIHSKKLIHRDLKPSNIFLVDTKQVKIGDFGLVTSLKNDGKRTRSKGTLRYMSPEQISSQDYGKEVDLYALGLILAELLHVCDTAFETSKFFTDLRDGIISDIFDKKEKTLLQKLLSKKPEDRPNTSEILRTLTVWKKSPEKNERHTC", "assay": "Inhibition of recombinant human PKR (501 to end residues) at 1 uM using AKRRRLSSLRA as substrate after 40 mins in presence of [gamma-33P]ATP by scintillation counting method"}, "[9]": {"biological_target": "Calcium/calmodulin-dependent protein kinase type IV (Homo sapiens) (UniProt Q16566)", "sequence (Q16566 whole entry)": "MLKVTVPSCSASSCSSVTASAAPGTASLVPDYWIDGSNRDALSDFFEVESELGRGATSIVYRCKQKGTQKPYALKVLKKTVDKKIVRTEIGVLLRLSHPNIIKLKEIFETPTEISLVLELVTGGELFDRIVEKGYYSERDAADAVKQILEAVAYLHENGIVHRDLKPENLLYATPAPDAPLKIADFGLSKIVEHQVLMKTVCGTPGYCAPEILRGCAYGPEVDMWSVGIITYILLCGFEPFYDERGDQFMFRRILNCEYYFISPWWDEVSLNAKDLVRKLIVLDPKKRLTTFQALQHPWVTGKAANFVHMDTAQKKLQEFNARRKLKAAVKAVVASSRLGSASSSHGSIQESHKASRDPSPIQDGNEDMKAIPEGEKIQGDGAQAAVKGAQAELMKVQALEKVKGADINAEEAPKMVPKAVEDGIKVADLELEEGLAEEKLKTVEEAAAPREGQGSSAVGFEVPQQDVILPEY", "assay": "Inhibition of recombinant full-length human CAMK4 at 1 uM using […] after 40 mins in presence of [gamma-33P]ATP by scintillation counting method"}, "[10]": {"biological_target": "CDK7/Cyclin H/MNAT1 (Homo sapiens) (UniProt P51946+P50613+P51948)", "assay": "Inhibition of recombinant full-length human CDK7/CyclinH/MAT1 at 1 uM using peptide as substrate after 40 mins in presence of [gamma-33P]ATP by scintillation counting method", "assay_type": "protein-complex assay"}, "[11]": {"biological_target": "Casein kinase I isoform gamma-1 (Homo sapiens) (UniProt Q9HCP0)", "sequence (Q9HCP0 whole entry, looked up, the tested form may be a part, canonical isoform)": "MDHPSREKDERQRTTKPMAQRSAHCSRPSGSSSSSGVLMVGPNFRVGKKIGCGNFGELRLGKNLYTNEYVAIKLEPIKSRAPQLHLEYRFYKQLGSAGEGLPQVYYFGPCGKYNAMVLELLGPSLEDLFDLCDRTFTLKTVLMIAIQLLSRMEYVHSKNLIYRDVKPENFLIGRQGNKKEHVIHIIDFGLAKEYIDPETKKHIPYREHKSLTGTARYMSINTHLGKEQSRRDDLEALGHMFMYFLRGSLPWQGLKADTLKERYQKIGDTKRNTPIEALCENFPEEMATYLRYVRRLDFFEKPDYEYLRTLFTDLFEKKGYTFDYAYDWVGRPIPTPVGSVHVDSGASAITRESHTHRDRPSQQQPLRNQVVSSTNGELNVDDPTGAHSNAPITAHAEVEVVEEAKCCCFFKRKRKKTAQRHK", "assay": "Inhibition of recombinant human CK1gamma1 (25 to 355 residues) at 1 uM using KRRRALS(p)VASLPGL as substrate after 40 mins in presence of [gamma-33P]ATP by scintillation counting method"}, "[12]": {"biological_target": "Serine/threonine-protein kinase TAO2 (Homo sapiens) (UniProt Q9UL54)", "assay": "Inhibition of recombinant human TAO2 (1 to 320 residues) at 1 uM using myelin basic protein as substrate after 40 mins in presence of [gamma-33P]ATP by scintillation counting method"}, "[13]": {"biological_target": "Mitogen-activated protein kinase kinase kinase 5 (Homo sapiens) (UniProt Q99683)", "assay": "Inhibition of recombinant human ASK1 (649 to 946 residues) at 1 uM using myelin basic protein as substrate after 40 mins in presence of [gamma-33P]ATP by scintillation counting method"}, "[14]": {"biological_target": "Homeodomain-interacting protein kinase 4 (Homo sapiens) (UniProt Q8NE63)", "assay": "Inhibition of recombinant full-length human HIPK4 at 1 uM using RRRFRPASPLRGPPK as substrate after 40 mins in presence of [gamma-33P]ATP by scintillation counting method"}, "[15]": {"biological_target": "Ephrin type-A receptor 4 (Homo sapiens) (UniProt P54764)", "assay": "Inhibition of recombinant human EPHA4 (601 to 892 residues) at 1 uM using poly(Glu,Tyr) 4:1 as substrate after 40 mins in presence of [gamma-33P]ATP by scintillation counting method"}, "[16]": {"test_system": "Proto-oncogene tyrosine-protein kinase Src (Homo sapiens), P12931 [T341M]", "sequence (P12931 whole entry T341M, looked up)": "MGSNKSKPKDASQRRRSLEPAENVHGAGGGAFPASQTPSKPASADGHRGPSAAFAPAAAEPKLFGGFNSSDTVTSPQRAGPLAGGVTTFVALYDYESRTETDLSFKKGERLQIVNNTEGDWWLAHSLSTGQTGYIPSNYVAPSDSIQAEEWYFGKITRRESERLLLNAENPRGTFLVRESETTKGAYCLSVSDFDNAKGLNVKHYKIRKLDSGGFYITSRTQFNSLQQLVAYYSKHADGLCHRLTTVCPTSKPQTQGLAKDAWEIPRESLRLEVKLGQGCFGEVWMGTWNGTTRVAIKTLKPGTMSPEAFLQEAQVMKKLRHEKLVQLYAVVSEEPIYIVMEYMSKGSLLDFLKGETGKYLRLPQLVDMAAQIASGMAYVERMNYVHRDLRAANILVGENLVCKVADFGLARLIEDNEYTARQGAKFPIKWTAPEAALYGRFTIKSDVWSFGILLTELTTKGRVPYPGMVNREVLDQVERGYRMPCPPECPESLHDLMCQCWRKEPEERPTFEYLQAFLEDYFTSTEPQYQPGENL", "assay": "Inhibition of recombinant full-length human Src T341M mutant at 1 uM using GGEEEEYFELVKKKK as substrate after 40 mins in presence of [gamma-33P]ATP by scintillation counting method"}, "[17]": {"biological_target": "Mitogen-activated protein kinase 1 (Homo sapiens) (UniProt P28482)", "assay": "Inhibition of recombinant full-length human MAPK1 at 1 uM using myelin basic protein as substrate after 40 mins in presence of [gamma-33P]ATP by scintillation counting method"}, "[18]": {"test_system": "Epidermal growth factor receptor (Homo sapiens), P00533 [T790M]", "assay": "Inhibition of recombinant human EGFR T790M mutant (696 to end residues) at 1 uM using GGMEDIYFEFMGGKKK as substrate after 40 mins in presence of [gamma-33P]ATP by scintillation counting method"}, "[19]": {"biological_target": "Serine/threonine-protein kinase SIK3 (Homo sapiens) (UniProt Q9Y2K2)", "assay": "Inhibition of recombinant human SIK3 (1 to 307 residues) at 1 uM using KKKVSRSGLYRSPSMPENLNRPR as substrate after 40 mins in presence of [gamma-33P]ATP by scintillation counting method"}, "[20]": {"biological_target": "Mitogen-activated protein kinase kinase kinase 7 (Homo sapiens) (UniProt O43318)", "assay": "Inhibition of recombinant human TAK1 (1 to 303 residues) at 1 uM using casein as substrate after 40 mins in presence of [gamma-33P]ATP by scintillation counting method"}, "[21]": {"biological_target": "Tyrosine-protein kinase receptor TYRO3 (Homo sapiens) (UniProt Q06418)", "sequence (Q06418 whole entry)": "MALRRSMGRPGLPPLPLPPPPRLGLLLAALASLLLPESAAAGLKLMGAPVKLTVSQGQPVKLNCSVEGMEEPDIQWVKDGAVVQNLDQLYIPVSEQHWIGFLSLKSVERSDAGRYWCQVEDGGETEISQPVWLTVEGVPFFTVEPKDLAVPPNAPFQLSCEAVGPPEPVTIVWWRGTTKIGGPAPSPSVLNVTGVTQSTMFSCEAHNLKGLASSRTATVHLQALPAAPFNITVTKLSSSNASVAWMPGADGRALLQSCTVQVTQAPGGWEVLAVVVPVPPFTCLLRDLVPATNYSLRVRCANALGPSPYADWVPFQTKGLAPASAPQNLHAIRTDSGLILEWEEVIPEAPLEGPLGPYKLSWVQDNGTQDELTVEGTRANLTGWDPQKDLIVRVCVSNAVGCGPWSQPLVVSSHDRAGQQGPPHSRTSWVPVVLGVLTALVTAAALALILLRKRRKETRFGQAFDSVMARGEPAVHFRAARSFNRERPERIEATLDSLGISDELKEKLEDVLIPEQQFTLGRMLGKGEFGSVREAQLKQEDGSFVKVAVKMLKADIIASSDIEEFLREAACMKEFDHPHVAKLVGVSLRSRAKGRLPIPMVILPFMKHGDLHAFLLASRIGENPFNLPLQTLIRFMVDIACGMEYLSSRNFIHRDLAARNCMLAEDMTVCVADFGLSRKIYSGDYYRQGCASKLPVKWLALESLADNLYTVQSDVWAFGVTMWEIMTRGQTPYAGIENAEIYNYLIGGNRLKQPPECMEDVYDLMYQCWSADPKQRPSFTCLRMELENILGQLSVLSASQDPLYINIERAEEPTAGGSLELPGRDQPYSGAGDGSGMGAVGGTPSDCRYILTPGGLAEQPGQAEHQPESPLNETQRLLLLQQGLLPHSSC", "assay": "Inhibition of recombinant human Rse (451 to end residues) at 1 uM using KVEKIGEGTYGVVYK as substrate after 40 mins in presence of [gamma-33P]ATP by scintillation counting method"}, "[22]": {"biological_target": "Ribosomal protein S6 kinase alpha-5 (Homo sapiens) (UniProt O75582)", "assay": "Inhibition of recombinant human MSK1 (2 to end residues) at 1 uM using GRPRTSSFAEGKK as substrate after 40 mins in presence of [gamma-33P]ATP by scintillation counting method"}, "[23]": {"biological_target": "cAMP-dependent protein kinase catalytic subunit alpha (Homo sapiens) (UniProt P17612)", "assay": "Inhibition of recombinant full-length human PRKACA at 1 uM using LRRASLG (Kemptide) as substrate after 40 mins in presence of [gamma-33P]ATP by scintillation counting method"}}}
{"molecule": "CS(=O)(=O)c1ccc(-n2nc(-c3cnc4[nH]ccc4c3)c3c(N)ncnc32)cc1", "values": [{"measurement": "inhibition", "setting": "[1]", "value": 1, "unit": "%"}, {"measurement": "inhibition", "setting": "[2]", "value": 2, "unit": "%"}, {"measurement": "inhibition", "setting": "[3]", "value": -1, "unit": "%"}, {"measurement": "inhibition", "setting": "[4]", "value": -6, "unit": "%"}, {"measurement": "inhibition", "setting": "[5]", "value": 4, "unit": "%"}, {"measurement": "inhibition", "setting": "[6]", "value": 63, "unit": "%"}, {"measurement": "inhibition", "setting": "[7]", "value": 20, "unit": "%"}, {"measurement": "inhibition", "setting": "[8]", "value": 13, "unit": "%"}, {"measurement": "inhibition", "setting": "[9]", "value": 8, "unit": "%"}, {"measurement": "inhibition", "setting": "[10]", "value": 7, "unit": "%"}, {"measurement": "inhibition", "setting": "[11]", "value": 4, "unit": "%"}, {"measurement": "inhibition", "setting": "[12]", "value": 9, "unit": "%"}, {"measurement": "inhibition", "setting": "[13]", "value": -7, "unit": "%"}, {"measurement": "inhibition", "setting": "[14]", "value": -4, "unit": "%"}, {"measurement": "inhibition", "setting": "[15]", "value": 1, "unit": "%"}, {"measurement": "inhibition", "setting": "[16]", "value": 7, "unit": "%"}, {"measurement": "inhibition", "setting": "[17]", "value": 2, "unit": "%"}, {"measurement": "inhibition", "setting": "[18]", "value": 22, "unit": "%"}, {"measurement": "inhibition", "setting": "[19]", "value": 20, "unit": "%"}, {"measurement": "inhibition", "setting": "[20]", "value": -3, "unit": "%"}, {"measurement": "inhibition", "setting": "[21]", "value": 4, "unit": "%"}, {"measurement": "inhibition", "setting": "[22]", "value": 0, "unit": "%"}, {"measurement": "inhibition", "setting": "[23]", "value": 4, "unit": "%"}]}
